Activity calls are given as the source filed them.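 How the source made its calls: active means IC50 at or below a set limit above the highest tested dose; inconclusive means flat curve with 30 to 70% inhibition, or poor fit; inactive means the rest.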

For the test, the target named is Glycogen synthase kinase-3 beta (Homo sapiens) (UniProt P49841). Kind of test: GSK3beta kinase inhibitor potency, dose response, biochemical, luminescence, cell-free homogeneous, retest (AID 434954). Conditions: recombinant GSK3beta, ADP-Glo luminescence, 60 min. A general note: In ADP-Glo the light output rises with the ADP produced.
Sequence of Glycogen synthase kinase-3 beta (Homo sapiens) (P49841 whole entry, looked up): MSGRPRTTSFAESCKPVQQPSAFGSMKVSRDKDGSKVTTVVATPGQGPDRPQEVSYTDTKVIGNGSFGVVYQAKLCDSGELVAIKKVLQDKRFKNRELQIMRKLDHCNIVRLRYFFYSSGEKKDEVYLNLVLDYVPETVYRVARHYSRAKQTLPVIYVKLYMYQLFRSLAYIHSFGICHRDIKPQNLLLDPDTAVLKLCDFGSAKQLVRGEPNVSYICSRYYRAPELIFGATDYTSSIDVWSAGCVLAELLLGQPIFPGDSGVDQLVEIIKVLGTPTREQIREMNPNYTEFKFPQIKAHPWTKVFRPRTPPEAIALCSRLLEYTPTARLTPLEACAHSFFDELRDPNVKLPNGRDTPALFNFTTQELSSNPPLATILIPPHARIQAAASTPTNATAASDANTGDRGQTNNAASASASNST
Broadly, the IC50 is the concentration needed to halve the response being measured. On to `CCOC(=O)C1=C(C)Nc2ncnn2C1c1cc(Br)ccc1F` (stereo not given), for which the half-maximal inhibitory concentration (IC50) was 24 µM.
Regarding `Cc1c(C#N)c(O)[nH]c(=O)c1N=Nc1ccc(S(N)(=O)=O)cc1`, the IC50 is 0.917 µM.
With `O=c1[nH]c(=O)n(Cc2ccc(F)cc2)c(O)c1C=NCCN1CCCCC1` the figure was > 30 µM (inactive); with `Fc1ccccc1/C=N/Nc1ncnc2nc[nH]c12`, 11.2 µM; with `CCOC(=O)C1=C(C)Nc2ncnn2C1c1ccc(N(C)C)cc1` (stereo not given), > 30 µM (inactive).
For `CCCCCCn1c(O)c(C=NCCCn2ccnc2)c(=O)[nH]c1=O` the value was 14.3 µM; for `O=C(O)c1ccccc1N/N=C\c1ccnc2ccccc12`, > 30 µM (inactive); for `CC1(C)CC(=O)C2=C(C1)Nc1cc3c(cc1C2c1ccc(F)cc1)OCO3` (stereo not given), > 30 µM (inactive).
With `COc1ccc(COC(=O)C2=C(C)NC(=O)NC2c2ccc(O)c(OC)c2)cc1` (stereo not given) the figure was > 30 µM (inactive); with `COc1cccc(C2Nc3ccccc3NC3=C2C(=O)CC(C)(C)C3)c1` (stereo not given), > 30 µM (inactive).
Regarding `CCOc1ccc(/C=C2/C(=N)N3OC(C)=CC3=NC2=O)cc1OC`, the IC50 was > 30 µM (inactive).
With `Cc1c(C=Nc2ccc(S(=O)(=O)N(C)C)cc2)c(O)[nH]c(=O)c1C#N` the figure was > 30 µM (inactive).
Consider `O/N=C/c1ccc(OCc2ccccc2)c(Cl)c1`, for which the IC50 is > 30 µM (inactive).
For `COc1ccc(C2CC(=O)C3=C(C2)Nc2ncnn2C3c2ccccc2C)cc1` (stereo not given) the value was > 30 µM (inactive).
With `O=C(O)c1ccc(N/N=C/c2ccc(-c3cccc(Cl)c3)o2)cc1` the figure was > 30 µM (inactive).
With `CCOc1ccc(/C=N/Nc2ccccn2)cc1OC` the figure was > 30 µM (inactive); with `CC1(C)CC(=O)C2=C(C1)NC1=C(C(=O)c3ccccc31)C2c1ccc(O)cc1` (stereo not given), > 30 µM (inactive); with `Fc1cccc(/C=N/Nc2ncnc3nc[nH]c23)c1`, 11.9 µM.
In the case of `CC1=C(C(=O)OCC2CCCO2)C(c2ccc(O)cc2)NC(=O)N1` (stereo not given), the IC50 was > 30 µM (inactive).
For the compound `Cc1[nH]nc2c1C(c1ccc(N(C)C)cc1)C1=C(CC(C)(C)CC1=O)N2` (stereo not given), the 50% inhibitory concentration (IC50) is 28 µM.
For `CCOC(=O)C1=C(C)Nc2ncnn2C1c1cc(OC)ccc1OC` (stereo not given) the value was > 30 µM (inactive).
Regarding `Cc1ccc(-c2nn(-c3ccccc3)cc2/C=N/O)cc1`, the half-inhibitory concentration (IC50) is 0.565 µM.
For `O=C(O)c1ccc(-c2ccc(/C=N/Nc3ccc([N+](=O)[O-])cc3)o2)cc1` the value was > 30 µM (inactive).
For `O=C(CC1SC(N2CCCCC2)=NC1=O)Nc1cccc(C(F)(F)F)c1` (stereo not given), the IC50 is > 30 µM (inactive).
In the case of `Nc1nc(F)nc2c1ncn2[C@@H]1O[C@H](CO)[C@@H](O)[C@@H]1O`, the IC50 was > 30 µM (inactive).
For `COc1ccc(-c2nn(-c3ccccc3)cc2/C=N/N2C(=O)CSC2=S)cc1` the value was > 30 µM (inactive).
With `Cc1[nH]nc2c1C(c1ccc(O)cc1)C1=C(CC(C)(C)CC1=O)N2` (stereo not given) the figure was 2.06 µM; with `COc1cccc(C2C3=C(CC(C)(C)CC3=O)Nc3n[nH]c(C)c32)c1` (stereo not given), 0.958 µM; with `COc1ccc(-c2nn(-c3ccccc3)cc2/C=N/O)cc1`, 0.432 µM.
As for `CCOc1cc(C2Nc3ccccc3NC3=C2C(=O)CC(C)(C)C3)ccc1O` (stereo not given), the IC50 was > 30 µM (inactive).
For `Nc1ncnc2c1ncn2C1OC(CO)C(O)C1O` (stereo not given) the value was > 30 µM (inactive).
As for `COc1cccc(C2C3=C(CC(C)(C)CC3=O)Nc3cc4c(cc32)OCO4)c1` (stereo not given), the IC50 was > 30 µM (inactive).
In the case of `CCCCCOC(=O)C1=C(C)Nc2ncnn2C1c1cccs1` (stereo not given), the IC50 was > 30 µM (inactive).
For `CCCC1=C(C(=O)OCC)C(c2ccco2)n2ncnc2N1` (stereo not given) the value was 17.4 µM; for `CCOC(=O)C1=C(CN2CCSCC2)NC(=O)NC1c1cc(C)ccc1C` (stereo not given), > 30 µM (inactive).
With `CCCCOC(=O)C1=C(C)Nc2ncnn2C1c1cccc(OC)c1OC` (stereo not given) the figure was 4.25 µM; with `CCN(CC)CCN1C(=O)C(=O)/C(=C(/O)c2ccc(S(=O)(=O)N3CCOCC3)cc2)C1c1ccccc1` (stereo not given), > 30 µM (inactive).
For `N#CC(=C=[N-])c1nc2ccccc2nc1-[n+]1cccc(NC(=O)c2ccccc2)c1` the value was > 30 µM (inactive).
In the case of `COCCOC(=O)C1=C(C)Nc2ncnn2C1c1ccccc1` (stereo not given), the IC50 is > 30 µM (inactive).
Consider `CCc1ccc(/C=N/Nc2ncnc3nc[nH]c23)cc1`, for which the IC50 is 26.6 µM.
As to `COc1ccc(-c2nn(-c3ccccc3)cc2/C=N/Nc2ccc(Cl)c(C(=O)O)c2)cc1OC`, the IC50 is > 30 µM (inactive).
With `COc1ccc(C2C(C(C)=O)=C(O)C(=O)N2c2nccs2)c(OC)c1` (stereo not given) the figure was > 30 µM (inactive); with `N#CCCn1cc(/C=N/O)c(-c2ccc(-c3ccccc3)cc2)n1`, > 30 µM (inactive).
For `Cc1c(C=Nc2ccc(S(=O)(=O)CCO)cc2)c(O)[nH]c(=O)c1C#N`, the IC50 is > 30 µM (inactive).
For `COc1cc(/C=N/Nc2ccc([N+](=O)[O-])cn2)cc(OC)c1O` the value was 5.41 µM.
For `Cc1cc(-c2[nH]nc3c2C(c2cccc(O)c2)C(C#N)=C(N)O3)c(C)s1` (stereo not given) the value was 25.4 µM.
For `Cc1ccc(C2C3=C(CC(C)(C)CC3=O)Nc3n[nH]c(C)c32)cc1` (stereo not given) the value was 9.26 µM.
Turning to `Cc1nn(-c2ccccn2)c2c1C(c1ccncc1)C1=C(CC(C)(C)CC1=O)N2` (stereo not given), the IC50 is > 30 µM (inactive).
For `O=c1[nH]c(N/N=C/c2ccccc2)nc2ccccc12` the value was > 30 µM (inactive); for `Cc1c(C(=O)O)cccc1-n1c(C)cc(/C=N/Nc2ccc([N+](=O)[O-])cn2)c1C`, 21.3 µM; for `COc1ccc(OC)c(C2Nc3ccccc3NC3=C2C(=O)CC(C)(C)C3)c1` (stereo not given), > 30 µM (inactive).
With `Oc1ccc(/C=N/Nc2ncc(Br)cn2)c(O)c1` the figure was 12.3 µM.
With `CCOc1cc(C2C3=C(CC(C)(C)CC3=O)Nc3n[nH]c(C)c32)ccc1O` (stereo not given) the figure was 3.32 µM.
Regarding `CCOC(=O)C1=C(C)Nc2ncnn2C1c1ccccc1F` (stereo not given), the IC50 was > 30 µM (inactive).
With `O=C(O)CC1S/C(=N/N=C/c2ccc(-c3ccc(Cl)c([N+](=O)[O-])c3)o2)NC1=O` (stereo not given), the IC50 was > 30 µM (inactive).
Consider `Nc1ncnc2c1ncn2[C@@H]1O[C@H](COP(=O)(O)O)[C@@H](O)[C@H]1O`, for which the IC50 was > 30 µM (inactive).
With `O=C(O)c1cc(-c2ccc(/C=N/Nc3ccc(Cl)cc3)o2)ccc1Cl` the figure was > 30 µM (inactive); with `Cc1ccc(/C=N/Nc2ncnc3nc[nH]c23)cc1`, 30.1 µM.
Take `CN(C)C=NC(=O)/C(C#N)=C1\CCc2ccccc2N1`: the 50% inhibitory concentration (IC50) was 20.1 µM.
For `O=C(O)c1cccc(-c2ccc(/C=N/Nc3ccc([N+](=O)[O-])cc3)o2)c1` the value was > 30 µM (inactive); for `COc1ccc(-c2c(C)n([O-])c(C)c(C)[n+]2=O)cc1`, > 30 µM (inactive); for `COc1ccc(-c2nn(-c3ccccc3)cc2/C=N/O)cc1OC`, 3.99 µM.
For `Cc1ccccc1CSc1nc2n(n1)C(c1cccs1)C1=C(CCCC1=O)N2` (stereo not given) the value was > 30 µM (inactive); for `C=CCOC(=O)C1=C(C)Nc2ncnn2C1c1cccs1` (stereo not given), > 30 µM (inactive).
As to `CC1=C(C(=O)Nc2ccccc2F)C(c2ccsc2)C2=C(CC(C)(C)CC2=O)N1` (stereo not given), the IC50 is > 30 µM (inactive).

Source of the values: PubChem BioAssay AID434954 (Broad Institute, 2010).
